Test results from the NIST ThermoML archive (doi:10.1016/j.jct.2008.01.023).

Columns and labels:
[1] = refractive index (Na D-line) (dimensionless); settings: 298.15 K; 101.33 kPa; Liquid; Standard Abbe refractometry
[2] = 298.15 K; 101.33 kPa; Liquid
[3] = xn = mol fraction of the nth substance listed; settings: 298.15 K, 101 kPa, Liquid
[4] = refractive index (Na D-line) (dimensionless); xn = mol fraction of the nth substance listed; settings: 298.15 K, 101 kPa, Liquid, Standard Abbe refractometry

OCCO [1,2-ethanediol]
Settings | refractive index
[1] | 1.4304

ClCCCCl [1,3-dichloropropane]
Settings | mass density [kg/m3] | refractive index
[1] | – | 1.446
[2] | 1179.1 | –

ClCCCCl [1,3-dichloropropane] + CCCCn1cc[n+](C)c1.COS(=O)(=O)[O-]
Settings | mass density, [3] [kg/m3] | refractive index, [4]
x2 = 0.0429 | 1183.63 | 1.4499
x2 = 0.0674 | 1185.62 | 1.4518
x2 = 0.104 | 1188.24 | 1.4543
x2 = 0.1376 | 1190.37 | 1.4564
x2 = 0.1894 | 1193.17 | 1.4596
x2 = 0.2496 | 1195.76 | 1.4624
x2 = 0.3166 | 1198.02 | 1.4654
x2 = 0.3917 | 1200.02 | 1.4677
x2 = 0.4881 | 1201.98 | 1.4706
x2 = 0.5686 | 1203.19 | 1.4725
x2 = 0.6797 | 1204.61 | 1.4747
x2 = 0.7887 | 1205.73 | 1.4765
x2 = 0.8987 | 1206.82 | 1.4784

ClCCCCl [1,3-dichloropropane] + CCCCn1cc[n+](C)c1.F[B-](F)(F)F
Settings | mass density, [3] [kg/m3] | refractive index, [4]
x2 = 0.0536 | 1184.13 | 1.4448
x2 = 0.1135 | 1187.8 | 1.443
x2 = 0.1516 | 1189.78 | 1.4418
x2 = 0.2101 | 1192.32 | 1.4401
x2 = 0.2817 | 1194.71 | 1.4381
x2 = 0.3528 | 1196.53 | 1.4359
x2 = 0.4042 | 1197.51 | 1.4345
x2 = 0.4626 | 1198.41 | 1.433
x2 = 0.5254 | 1199.14 | 1.4314
x2 = 0.5466 | 1199.38 | 1.4309
x2 = 0.5955 | 1199.76 | 1.4296
x2 = 0.6786 | 1200.34 | 1.4276
x2 = 0.7863 | 1200.89 | 1.4255
x2 = 0.9028 | 1201.2 | 1.4234

CCCCn1cc[n+](C)c1.COS(=O)(=O)[O-] [1-butyl-3-methylimidazolium methyl sulfate]
Settings | mass density [kg/m3] | refractive index
[1] | – | 1.4794
[2] | 1207.75 | –

CCCCn1cc[n+](C)c1.COS(=O)(=O)[O-] [1-butyl-3-methylimidazolium methyl sulfate] + CCO
Settings | mass density, [3] [kg/m3] | refractive index, [4]
x1 = 0.0459 | 850.62 | 1.3791
x1 = 0.0987 | 909.24 | 1.3956
x1 = 0.142 | 948.07 | 1.4067
x1 = 0.1905 | 984.34 | 1.417
x1 = 0.2357 | 1012.98 | 1.4253
x1 = 0.2733 | 1033.54 | 1.4314
x1 = 0.3516 | 1069.63 | 1.4414
x1 = 0.4381 | 1101.3 | 1.4503
x1 = 0.5335 | 1129.08 | 1.4581
x1 = 0.5712 | 1138.45 | 1.4609
x1 = 0.6742 | 1160.39 | 1.4667
x1 = 0.7665 | 1176.77 | 1.4715
x1 = 0.8482 | 1188.91 | 1.4745
x1 = 0.9248 | 1199.03 | 1.4772

CCCCn1cc[n+](C)c1.COS(=O)(=O)[O-] [1-butyl-3-methylimidazolium methyl sulfate] + C[N+](=O)[O-]
Settings | mass density, [3] [kg/m3] | refractive index, [4]
x1 = 0.0398 | 1146.67 | 1.3953
x1 = 0.1021 | 1161.66 | 1.4128
x1 = 0.1433 | 1168.87 | 1.4218
x1 = 0.1988 | 1176.21 | 1.4316
x1 = 0.2444 | 1180.95 | 1.4382
x1 = 0.2998 | 1185.58 | 1.4449
x1 = 0.3979 | 1191.69 | 1.4541
x1 = 0.4786 | 1195.47 | 1.4596
x1 = 0.5652 | 1198.52 | 1.4648
x1 = 0.7127 | 1202.66 | 1.4714
x1 = 0.8212 | 1204.74 | 1.4748
x1 = 0.8546 | 1205.4 | 1.4758

CCCCn1cc[n+](C)c1.COS(=O)(=O)[O-] [1-butyl-3-methylimidazolium methyl sulfate] + OCCO
Settings | mass density, [3] [kg/m3] | refractive index, [4]
x1 = 0.0341 | 1195.09 | 1.4334
x1 = 0.0854 | 1115.82 | 1.4373
x1 = 0.1079 | 1172.89 | 1.439
x1 = 0.1946 | 1123.61 | 1.4449
x1 = 0.2446 | 1170.78 | 1.4479
x1 = 0.2999 | 1126.01 | 1.4511
x1 = 0.353 | 1164.56 | 1.454
x1 = 0.4399 | 1138.05 | 1.4582
x1 = 0.5061 | 1150.15 | 1.4616
x1 = 0.5299 | 1188.48 | 1.4625
x1 = 0.636 | 1143.98 | 1.4672
x1 = 0.717 | 1155.76 | 1.4703
x1 = 0.8055 | 1182.08 | 1.4735
x1 = 0.907 | 1201.87 | 1.4768

CCCCn1cc[n+](C)c1.F[B-](F)(F)F [1-butyl-3-methylimidazolium tetrafluoroborate]
Settings | mass density [kg/m3] | refractive index
[1] | – | 1.4219
[2] | 1201.41 | –

CCCCn1cc[n+](C)c1.F[B-](F)(F)F [1-butyl-3-methylimidazolium tetrafluoroborate] + CCO
Settings | mass density, [3] [kg/m3] | refractive index, [4]
x1 = 0.0517 | 850.45 | 1.3703
x1 = 0.0918 | 891.63 | 1.3767
x1 = 0.1995 | 976.13 | 1.3898
x1 = 0.2495 | 1007.41 | 1.3943
x1 = 0.2518 | 1042.9 | 1.3946
x1 = 0.3228 | 1081.97 | 1.3998
x1 = 0.4219 | 1117.11 | 1.4058
x1 = 0.5356 | 1138.94 | 1.4105
x1 = 0.6244 | 1156.56 | 1.4137
x1 = 0.709 | 1177.74 | 1.4161
x1 = 0.8295 | 1192.74 | 1.4188

CCCCn1cc[n+](C)c1.F[B-](F)(F)F [1-butyl-3-methylimidazolium tetrafluoroborate] + OCCO
Settings | mass density, [3] [kg/m3] | refractive index, [4]
x1 = 0.0517 | 1123.11 | 1.4287
x1 = 0.138 | 1138.78 | 1.4261
x1 = 0.1928 | 1146.51 | 1.425
x1 = 0.2567 | 1154.22 | 1.424
x1 = 0.3 | 1158.72 | 1.4235
x1 = 0.3324 | 1161.86 | 1.4231
x1 = 0.402 | 1167.89 | 1.4226
x1 = 0.4162 | 1168.98 | 1.4225
x1 = 0.4997 | 1175.1 | 1.4219
x1 = 0.5803 | 1180.22 | 1.4216
x1 = 0.632 | 1183.29 | 1.4215
x1 = 0.696 | 1186.82 | 1.4215
x1 = 0.8045 | 1192.48 | 1.4215
x1 = 0.9083 | 1197.33 | 1.4217

CCOCCOCCO [3,6-dioxa-1-octanol]
Settings | mass density [kg/m3] | refractive index
[1] | – | 1.4253
[2] | 983.68 | –

CCOCCOCCO [3,6-dioxa-1-octanol] + CCCCn1cc[n+](C)c1.COS(=O)(=O)[O-]
Settings | mass density, [3] [kg/m3] | refractive index, [4]
x2 = 0.0517 | 1003.36 | 1.4307
x2 = 0.0891 | 1016.08 | 1.4339
x2 = 0.1483 | 1035.02 | 1.4388
x2 = 0.2233 | 1057.1 | 1.4443
x2 = 0.2901 | 1074.98 | 1.4488
x2 = 0.3194 | 1082.5 | 1.4507
x2 = 0.3902 | 1099.82 | 1.4548
x2 = 0.4732 | 1118.6 | 1.4593
x2 = 0.5364 | 1131.83 | 1.4626
x2 = 0.6235 | 1148.55 | 1.4663
x2 = 0.696 | 1161.73 | 1.4697
x2 = 0.8065 | 1179.9 | 1.4735
x2 = 0.8947 | 1193.18 | 1.4763

CCOCCOCCO [3,6-dioxa-1-octanol] + CCCCn1cc[n+](C)c1.F[B-](F)(F)F
Settings | mass density, [3] [kg/m3] | refractive index, [4]
x2 = 0.0544 | 1003.36 | 1.4268
x2 = 0.1016 | 1018.2 | 1.4274
x2 = 0.1492 | 1032.87 | 1.4277
x2 = 0.1941 | 1045.1 | 1.4278
x2 = 0.2686 | 1065.22 | 1.4278
x2 = 0.3215 | 1078.37 | 1.4277
x2 = 0.3932 | 1094.93 | 1.4273
x2 = 0.5108 | 1119.82 | 1.4265
x2 = 0.6016 | 1137.49 | 1.4257
x2 = 0.6657 | 1149.16 | 1.425
x2 = 0.6998 | 1155.07 | 1.4247
x2 = 0.8304 | 1176.5 | 1.4235
x2 = 0.9551 | 1195.04 | 1.4223

CCO [ethanol]
Settings | mass density [kg/m3] | refractive index
[1] | – | 1.3593
[2] | 785.18 | –

C[N+](=O)[O-] [nitromethane]
Settings | mass density [kg/m3] | refractive index
[1] | – | 1.3796
[2] | 1131.17 | –

C[N+](=O)[O-] [nitromethane] + CCCCn1cc[n+](C)c1.F[B-](F)(F)F
Settings | mass density, [3] [kg/m3] | refractive index, [4]
x2 = 0.0512 | 1148.18 | 1.3889
x2 = 0.0991 | 1158.64 | 1.3952
x2 = 0.1392 | 1165.19 | 1.399
x2 = 0.2026 | 1173.12 | 1.4038
x2 = 0.2986 | 1181.43 | 1.4089
x2 = 0.3565 | 1185.14 | 1.4112
x2 = 0.3972 | 1187.27 | 1.4125
x2 = 0.4553 | 1189.89 | 1.4142
x2 = 0.5231 | 1192.3 | 1.4158
x2 = 0.5949 | 1194.48 | 1.4172
x2 = 0.6863 | 1196.69 | 1.4188
x2 = 0.8073 | 1198.86 | 1.4202
x2 = 0.8634 | 1199.69 | 1.4207
